# Measured values as given in US20100240767A1, “Melanogenesis inhibitiuon by 3,5-dimethoxy-4'-hydroxystilbenes and cosmeceutical compositions thereof” (priority 2009, published 2010).
# Legend:
# [1] = target: mushroom tyrosinase; assay: mushroom tyrosinase inhibitory activity; assay type: biochemical; conditions: 400 U/ml mushroom tyrosinase, 3.53 mM L-tyrosine substrate, absorbance 492 nm at 10th minute
# Protocol: The mushroom tyrosinase inhibitory activity of 3,5-dimethoxy-4′-hydroxystilbene was studied in a micro plate by incubating varying concentrations of the sample with 400 U/ml of mushroom tyrosinase and then by the addition of 3.53 mM of L-tyrosine substrate. The absorbance at the 10th minute of the reaction was read in a Fluostar Optima micro plate reader at 492 nm.
# [2] = test system: Swiss 3T3 mouse fibroblast cells; assay: UV protection in Swiss 3T3 mouse fibroblast cells (SRB viability); assay type: cell-based; conditions: UV A (0.5 J/cm2) and UV B (0.05 J/cm2), 72 hours incubation, SRB staining
# Protocol: 3,5-dimethoxy-4′-hydroxystilbene was studied for UV protection in Swiss 3T3 mouse fibroblast cells. Swiss 3T3 fibroblast cell monolayers were exposed to UV A (0.5 J/cm2) and UV B (0.05 J/cm2) in the presence and absence of sample treatment at varying concentrations. After UV exposure, the cells were incubated in CO2 incubator for 72 hours and the cell viability was determined by SRB (Sulphorhodomine B) dye staining. The UV protection is determined as the enhanced percentage of viable sample treated cells as compared to the untreated cells after UV exposure.
# [3] = test system: B16F1 mouse melanoma cell line; assay: melanogenesis inhibition in MSH-induced B16F1 mouse melanoma cell line; assay type: cell-based
# Protocol: 3,5-dimethoxy-4′-hydroxystilbene was studied for melanogenesis inhibition in B16F1 mouse melanoma cell line. B16F1 cells were induced with 0.5 nM MSH (Melanocyte stimulating hormone) and then treated with varying concentrations of the sample. Sample treatment was given thrice after every 72 hrs. On the 9th day of treatment, the melanin from the cells was extracted with 1N NaOH and the absorbance was read at 405 nm in a Fluostar Optima micro plate reader.
smiles,measurement,setting,value
"COc1cc(/C=C/c2ccc(O)cc2)cc(OC)c1 [3,5-dimethoxy-4′-hydroxystilbene]",inhibition of mushroom tyrosinase IC50,[1],7 µg/mL
same,UV protection (enhanced percentage of viable treated cells as compared to the untreated cells after UV exposure),[2],32%
same,IC50,"[3]; Mus musculus, B16-F1, B16F1 cells induced with 0.5 nM MSH, treated thrice every 72 hrs, melanin read at 405 nm on 9th day",0.5 µg/mL
same,melanogenesis inhibition potential relative to Glabridin,"[3]; times higher potential than Glabridin, B16F1 cells",about 6 times
